Assays:
Type in all cases: in vivo
[1] = test system: redroot pigweed (Amaranthus retroflexus, AMARE); test: Pre-emerge test, greenhouse herbicide activity screening; conditions: pre-emerge, 14 days after application, scale 0-100
Text: (§1) A standard greenhouse herbicide activity screening system was used to evaluate the herbicidal efficacy and crop safety of these test compounds. Seven broadleaf weed species including redroot pigweed (Amaranthus retroflexus, AMARE, velvetleaf (Abutilon theophrasti, ABUTH), sicklepod (Cassia obtusifolia, CASOB), ivyleaf morningglory (Ipomoea hederacea, IPOHE), lambsquarters (Chenopodium album, CHEAL), common ragweed (Ambrosia artemisizfolia L., AMBEL), and cocklebur (Xanthium strumarium, XANST) were used as test species. Four grass weed species including green foxtail (Setaria viridis, SETVI), barnyardgrass (Echinochloa crus-galli, ECHCG), johnsongrass (Sorghum halepense, SORHA), and large crabgrass (Digitaria sanguinalis, DIGSA) were also used. In addition, three crop species, field corn (Zea mays L., var. Dekalb 535, CORN), soybean (Glycine max L., var. Pella 86, SOY), and is upland rice (Oryza sp., var. Tebonnet, RICE) were included.
(§2) All plants were grown in 10 cm square plastic pots which were filled with a sandy loam soil mix. For pre-emerge tests, seeds were planted one day prior to application of the test compounds. For post-emerge tests, seeds were planted 8-21 days prior to the test to allow emergence and good foliage development prior to application of the test substances. At the time of the post-emerge application, plants of all species were usually at the 2-3 leaf stage of development.
All test compounds Were dissolved in acetone and applied to the test units in a volume of 187 l /ha. […] Plants were arranged on a shelf so that the top of the canopy (post-emerge) or top of the soil surface (pre-emerge) was 40-45 cm below the nozzle. Pressurized air was used to force the test solution through the nozzle as it was mechanically advanced (via electrically driven chain drive) over the top of all test plants/pots. This application simulates a typical commercial field herbicide application.
(§3) In the post-emerge test, a commercial non-ionic surfactant was also included (0.25% v/v) to enhance wetting of the leaf surfaces of target plants. Immediately after application, test units of the pre-emerge applications were watered at the soil surface to incorporate the test materials. Subsequently, these test units were bottom-watered. Post-emerge test units were always bottom-watered.
(§4) At 14 days after application of the test materials, phytotoxicity ratings were recorded. A rating scale of 0-100 was used as previously described in Research Methods in Weed Science, 2nd edition, B. Truelove, Ed., Southern Weed Science Society, Auburn University, Auburn, Ala. 1977. Briefly, “0” corresponds to no damage and “100” corresponds to complete death of all plants in the test unit. This scale was used both to determine efficacy against weed species and damage to crop species. Herbicide activity data for various compounds of this invention, which are shown by compound No. in Tables 1-8, are shown in Tables 11 and 12.

[2] = test system: barnyardgrass (Echinochloa crus-galli, ECHCG); test: as above; conditions: pre-emerge, 14 days after application, scale 0-100
Text: as §1, §2
(§5) All test compounds Were dissolved in acetone and applied to the test units in a volume of 187 l /ha. Test materials were applied at rates ranging from 15 g ai/ha to 1000 g ai/ha using a track sprayer equipped with a TJ8001E even flow flat fan spray nozzle. Plants were arranged on a shelf so that the top of the canopy (post-emerge) or top of the soil surface (pre-emerge) was 40-45 cm below the nozzle. Pressurized air was used to force the test solution through the nozzle as it was mechanically advanced (via electrically driven chain drive) over the top of all test plants/pots. This application simulates a typical commercial field herbicide application.
as §3, §4

[3] = test system: green foxtail (Setaria viridis, SETVI); test: as above; conditions: pre-emerge, 14 days after application, scale 0-100
Text: as §1, §2, §5, §3, §4

[4] = test system: ivyleaf morningglory (Ipomoea hederacea, IPOHE); test: as above; conditions: pre-emerge, 14 days after application, scale 0-100
Text: as §1, §2, §5, §3, §4

[5] = test system: lambsquarters (Chenopodium album, CHEAL); test: as above; conditions: pre-emerge, 14 days after application, scale 0-100
Text: as §1, §2, §5, §3, §4

[6] = test system: large crabgrass (Digitaria sanguinalis, DIGSA); test: as above; conditions: pre-emerge, 14 days after application, scale 0-100
Text: as §1, §2, §5, §3, §4

[7] = test system: sicklepod (Cassia obtusifolia, CASOB); test: as above; conditions: pre-emerge, 14 days after application, scale 0-100
Text: as §1, §2, §5, §3, §4

[8] = test system: velvetleaf (Abutilon theophrasti, ABUTH); test: as above; conditions: pre-emerge, 14 days after application, scale 0-100
Text: as §1, §2, §5, §3, §4

[9] = test system: field corn (Zea mays L., var. Dekalb 535, CORN); test: Pre-emerge test, crop safety; conditions: pre-emerge, 14 days after application, scale 0-100
Text: as §1, §2, §5, §3, §4

[10] = test system: upland rice (Oryza sp., var. Tebonnet, RICE); test: Pre-emerge test, crop safety; conditions: pre-emerge, 14 days after application, scale 0-100
Text: as §1, §2, §5, §3, §4

[11] = test system: barnyardgrass (Echinochloa crus-galli, ECHCG); test: Post-emerge test, greenhouse herbicide activity screening; conditions: post-emerge, 14 days after application, rating scale 0-100
Text: as §1, §2, §5, §3, §4

[12] = test system: green foxtail (Setaria viridis, SETVI); test: as above; conditions: post-emerge, 14 days after application, rating scale 0-100
Text: as §1, §2, §5, §3, §4

[13] = test system: ivyleaf morningglory (Ipomoea hederacea, IPOHE); test: as above; conditions: post-emerge, 14 days after application, rating scale 0-100
Text: as §1, §2, §5, §3, §4

[14] = test system: lambsquarters (Chenopodium album, CHEAL); test: as above; conditions: post-emerge, 14 days after application, rating scale 0-100
Text: as §1, §2, §5, §3, §4

[15] = test system: large crabgrass (Digitaria sanguinalis, DIGSA); test: as above; conditions: post-emerge, 14 days after application, rating scale 0-100
Text: as §1, §2, §5, §3, §4

[16] = test system: redroot pigweed (Amaranthus retroflexus, AMARE); test: as above; conditions: post-emerge, 14 days after application, rating scale 0-100
Text: as §1, §2, §5, §3, §4

[17] = test system: sicklepod (Cassia obtusifolia, CASOB); test: as above; conditions: post-emerge, 14 days after application, rating scale 0-100
Text: as §1, §2, §5, §3, §4

[18] = test system: velvetleaf (Abutilon theophrasti, ABUTH); test: as above; conditions: post-emerge, 14 days after application, rating scale 0-100
Text: as §1, §2, §5, §3, §4

[19] = test system: field corn (Zea mays L., var. Dekalb 535, CORN); test: Post-emerge test, crop safety; conditions: post-emerge, 14 days after application, rating scale 0-100
Text: as §1, §2, §5, §3, §4

[20] = test system: upland rice (Oryza sp., var. Tebonnet, RICE); test: Post-emerge test, crop safety; conditions: post-emerge, 14 days after application, rating scale 0-100
Text: as §1, §2, §5, §3, §4

COc1c(Cl)cc(F)c(-n2c(=O)cc(C(F)(F)F)n(C)c2=O)c1NC(=O)CCc1ccccc1C [2-129]
75: RICE phytotoxicity rating (crop damage) ([20]; 250 g ai/ha)
60: phytotoxicity rating DIGSA ([6]; 63 g ai/ha) | phytotoxicity rating CASOB ([7]; 63 g ai/ha)
90: phytotoxicity rating AMARE ([1]; 63 g ai/ha) | phytotoxicity rating SETVI ([3]; 63 g ai/ha) | phytotoxicity rating CASOB ([7]; 250 g ai/ha) | phytotoxicity rating CORN (crop damage) ([9]; 250 g ai/ha) | SETVI phytotoxicity rating ([12]; 250 g ai/ha)
70: phytotoxicity rating IPOHE ([4]; 250 g ai/ha) | DIGSA phytotoxicity rating ([15]; 250 g ai/ha) | CORN phytotoxicity rating (crop damage) ([19]; 63 g ai/ha)
40: phytotoxicity rating RICE (crop damage) ([10]; 63 g ai/ha)
100: phytotoxicity rating AMARE ([1]; 250 g ai/ha) | phytotoxicity rating SETVI ([3]; 250 g ai/ha) | phytotoxicity rating CHEAL ([5]; 63 g ai/ha) | phytotoxicity rating CHEAL ([5]; 250 g ai/ha) | phytotoxicity rating DIGSA ([6]; 250 g ai/ha) | phytotoxicity rating ABUTH ([8]; 63 g ai/ha) | phytotoxicity rating ABUTH ([8]; 250 g ai/ha) | IPOHE phytotoxicity rating ([13]; 63 g ai/ha) | IPOHE phytotoxicity rating ([13]; 250 g ai/ha) | CHEAL phytotoxicity rating ([14]; 63 g ai/ha) | CHEAL phytotoxicity rating ([14]; 250 g ai/ha) | AMARE phytotoxicity rating ([16]; 63 g ai/ha) | AMARE phytotoxicity rating ([16]; 250 g ai/ha) | CASOB phytotoxicity rating ([17]; 250 g ai/ha) | ABUTH phytotoxicity rating ([18]; 63 g ai/ha) | ABUTH phytotoxicity rating ([18]; 250 g ai/ha) | CORN phytotoxicity rating (crop damage) ([19]; 250 g ai/ha)
35: RICE phytotoxicity rating (crop damage) ([20]; 63 g ai/ha)
50: phytotoxicity rating IPOHE ([4]; 63 g ai/ha) | phytotoxicity rating CORN (crop damage) ([9]; 63 g ai/ha) | ECHCG phytotoxicity rating ([11]; 250 g ai/ha)
30: phytotoxicity rating ECHCG ([2]; 63 g ai/ha) | ECHCG phytotoxicity rating ([11]; 63 g ai/ha) | DIGSA phytotoxicity rating ([15]; 63 g ai/ha)
80: phytotoxicity rating ECHCG ([2]; 250 g ai/ha) | phytotoxicity rating RICE (crop damage) ([10]; 250 g ai/ha) | SETVI phytotoxicity rating ([12]; 63 g ai/ha) | CASOB phytotoxicity rating ([17]; 63 g ai/ha)

Source: patent publication US6355799B1, “Substituted benzene compounds, process for their preparation, and herbicidal and defoliant compositions containing them” (ISK Americas Incorporated, priority 1997, dated 2002)
